Data: patent US20240408139A1, “ENGINEERED CYTOKINE RECEPTORS FOR TUNABLE ADOPTIVE CELL THERAPY” (Dana-Farber Cancer Institute, Inc., priority 2021, published 2024)

Tests used:
[1] = tested on: CD8+ T cells comprising anti-fluorescein CAR; test: Stimulation of anti-fluorescein CAR T cells by plate-bound or free FITC conjugate; IL-2, IFN-gamma and CD69 by flow cytometry; assay type: cell-based
Experimental: T cells comprising a nucleic acid encoding anti-fluorescein CAR were stimulated on FITC-conjugated-antibody-coated normal (Normal) or high affinity (High affinity) plates or antibody-FITC solution (Free) with increasing doses of FITC (0, 0.1, 1, 10, and 100 μg/mL) in the presence or absence of CD3/CD28 co-stimulation. Expression of IL-2, IFN-gamma and CD69 in CD8^+ T cells were assessed by flow cytometry.

CD8+ T cells = test: Memory markers on CD8+ T cells expressing cytokine receptor switches, stimulated on FITC-conjugated-BSA-coated plate, flow cytometry; assay type: cell-based, human; details: with CD3/CD28-costimulation
Experimental: (§1) T cells comprising nucleic acids encoding cytokine receptor switches were stimulated on FITC-conjugated-BSA-coated plate (FIG. 2) with increasing dose of FITC (0, 0.1, 1, 10, 100, and 1000 μg/mL) in the presence or absence of CD3/CD28 co-stimulation for up to 2 weeks. The effector memory (CD45RA^− CCR7^−), central memory (CD45RA^−, CCR7 ^+), and activation (CD69) markers on CD4^+ and CD8^+ T cells were assessed by flow cytometry.

CD4+ T cells = test: Memory markers on CD4+ T cells expressing cytokine receptor switches, stimulated on FITC-conjugated-BSA-coated plate, flow cytometry; assay type: cell-based, human; details: with CD3/CD28-costimulation, up to 2 weeks, FIG. 3A
Experimental: as §1

fluorescein isothiocyanate [FITC]
expression of IL-2 in CAR T cells ([1]; FITC-dose-dependent, 0-100 μg/mL, FIG. 5A): increased | expression of IFN-gamma in CAR T cells ([1]; FITC-dose-dependent, 0-100 μg/mL, FIG. 5B): increased | expression of CD69 in CAR T cells ([1]; FITC-dose-dependent, 0-100 μg/mL, FIG. 5C): increased

BSA-FITC: fluorescein isothiocyanate (FITC) conjugated to bovine serum albumin (BSA)
stimulation of fluorescein-specific BAT-CAR-T cells ([1]; bound on high-affinity plate, FIGS. 5A-5C): efficiently stimulated

B1: IL2RA-cytokine receptor switch: IL2RA signal peptide, anti-fluorescein scFv, CD8 hinge, IL2RA transmembrane and intracellular domains; SEQ ID NO: 59 (protein)
chain: MDSYLLMWGLLTFIMVPGCQADVVMTQTPLSLPVSLGDQASISCRSSQSLVHSNGNTYLRWYLQKPGQSPKVLIYKVSNRVSGVPDRFSGSGSGTDFTLKINRVEAEDLGVYFCSQSTHVPWTFGGGTKLEIKSSADDAKKDAAKKDDAKKDDAKKDGGVKLDETGGGLVQPGGAMKLSCVTSGFTFGHYWMNWVRQSPEKGLEWVAQFRNKPYNYETYYSDSVKGRFTISRDDSKSSVYLQMNNLRVEDTGIYYCTGASYGMEYLGQGTSVTVSTTTPAPRPPTPAPTIASQPLSLRPEACRPAAGGAVHTRGLDFACDVAVAGCVFLLISVLLLSGLTWQRRQRKSRRTI
central memory markers (CD45RA-, CCR7+) on CD8+ T cells (CD8+ T cells; FIG. 3B): increased | effector memory markers (CD45RA- CCR7-) on CD8+ T cells (CD8+ T cells; FITC-BSA-coated plate, up to 2 weeks, FIG. 3A): increased | effector memory markers (CD45RA- CCR7-) on CD4+ T cells (CD4+ T cells): increased
